These results are taken from patent US4960678A, “Photochromic compounds” (Tokuyama Soda Kabushiki Kaisha, priority 1987, dated 1990).

What all share (format): physicochemical
A short description of series [1]: Xenon long-life fadeometer test of photochromic poly(methyl methacrylate) cast film (initial coloration density, T1/2, λmax), Example 9.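 As to Initial color density: 0.5 part by weight compound dispersed with PMMA in 100 parts benzene.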 The conditions noted are these: poly(methyl methacrylate) cast film 0.1 mm; for Initial color density: initial coloration density (absorbance); for Initial color density / T1/2 (fatigue life): xenon fadeometer; for λmax: maximum absorption wavelength; for T1/2 (fatigue life): time for color density to decrease to half of initial value. The source says:
The thickness of the cast film was adjusted to 0.1 mm.
(§1) T1/2 is defined as the time required for the color density to decrease to half of its initial value when the film is exposed to the fadeometer.

Series [2] can be described thus: Fatigue life of films of fulgimide or fulgide compounds with Cyasorb UV1084, Example 14. As to conditions: with Cyasorb UV1084 (0.2 part) as ultraviolet stabilizer in poly(methyl methacrylate) film; xenon fadeometer.
The nature of series [3]: Fatigue life of film of fulgimide compound obtained in Example 1 with ultraviolet stabilizer, Example 11. The conditions noted are these: fulgimide compound obtained in Example 1 (0.2 part) with 0.2 part ultraviolet stabilizer in poly(methyl methacrylate) film; xenon fadeometer.
From the text: as §1
(§2) One hundred parts of benzene, 10 parts of poly(methyl methacrylate), 0.2 part of the fulgimide compound obtained in Example 1 and 0.2 part of each of the compounds shown in Table 5 as an ultraviolet stabilizer were mixed to form a solution. The solution was cast on a slide glass (11.2×3.7cm) to form a cast film having a thickness of 0.1 mm.
(§3) The fatigue life of photochromic film was measured as in Example 9 by a xenon long-life fadeometer (FAL-25AX-HC made by Suga Testing Instrument Co., Ltd.).

Series [4] can be described thus: Fatigue life of film of fulgimide compound obtained in Example 2 with ultraviolet stabilizer, Example 12. The conditions noted are these: fulgimide compound obtained in Example 2 (0.2 part) with 0.2 part ultraviolet stabilizer in poly(methyl methacrylate) film; xenon fadeometer. Here is the method:
as §2, §3
Example 11 was repeated except that the fulgimide compound obtained in Example 2 was used instead of fulgimide compound used in Example 11.

A short description of series [5]: Fatigue life of film of fulgimide compound obtained in Example 1 with varied amounts of ultraviolet stabilizer, Example 13. As to conditions: fulgimide compound of Example 1. On the procedure:
[…] The solution was cast on a slide glass (11.2×3.7cm) to form a cast film having a thickness of 0.1 mm.
as §3

Series [6] can be described thus: Fading speed of poly(methyl methacrylate) cast film after mercury lamp irradiation, Example 9. The conditions noted are these: mercury lamp 60 seconds at 20°±1° C., time to half absorbance after irradiation stopped. On the procedure: The fading speeds of the cast films prepared as above were measured by the following procedure.
The cast film was exposed to a mercury lamp (SHL-100 made by Toshiba Co., Ltd.) at 20°±1° C. for 60 seconds from a distance of 10 cm. Then, the irradiation was stopped, and the fading speed was determined from changes in the absorbance of the cast film measured by a spectrophotometer (220A made by Hitachi Limited). The fading speed is expressed by the time which is required to the absorbance of the cast film to a value half of (the absorbance of the cast film at a maximum absorption wavelength immediately after 60 second irradiation)--(the absorbance of the non-irradiated cast film at the maximum wavelength) after light irradiation for 60 seconds.

A short description of series [7]: Durability test of poly(allyl diglycol carbonate) lens impregnated with compound in silicone oil, Example 10. On the procedure: as §1
The solution was impregnated in the surface of a lens composed of poly(allyl diglycol carbonate) at 200° C. for 1 hour. The concentration of the solution was adjusted to 1.0×10^-4 mole/g.

[8] abbreviates: stabilizer amount added 0.002 (1 part per 100 parts by weight of fulgimide).
The mark [9] stands for this setting: stabilizer amount added 0.1 (50 parts per 100 parts by weight of fulgimide).
Setting [10] is: stabilizer amount added 0.8 (400 parts per 100 parts by weight of fulgimide).
[11] abbreviates: stabilizer amount added 20 (10000 parts per 100 parts by weight of fulgimide).

`CCCCC12CC3CC(C1)C1(c4c(OC)cc(OC)cc4C(c4ccccc4)=C4C(=O)N(C(C)(C)C#N)C(=O)C41)C(C3)C2` (centres unmarked) [(17)]: in series [1], the Initial color density worked out at 0.49, the λmax is listed as 550 nm and the “T1/2 (fatigue life)” value stood at 48 h. Moreover, the T1/2 in series [2] is 188 h.

Take `CC(C)(C)CC(C)(C)c1ccc([O-])c(Sc2cc(C(C)(C)CC(C)(C)C)ccc2[O-])c1.CCCCN.[Ni+2]` [Cyasorb UV1084]: the T1/2 came out at 152 h in series [3]; 182 h in series [4]; 110 h in series [5] (setting [8]); 140 h in series [5] (setting [9]); 160 h in series [5] (setting [10]); 180 h in series [5] (setting [11]).

For the compound `COC(=O)C(C)N1C(=O)C2=C(c3ccccc3)c3ccoc3C3(C4CC5CC3CC(Cl)(C5)C4)C2C1=O` (centres unmarked) [(12)], in series [1], the Initial color density was determined as 0.79, the λmax is recorded as 560 nm and the “T1/2 (fatigue life)” value came out at 31 h. In series [2], this compound registered a T1/2 of 160 h.

Regarding `CC1=C2C(=O)N(CC#N)C(=O)C2C2(c3sccc31)C1CC3CC(C1)CC2C3` (centres unmarked) [(2)], in series [1], the Initial color density was 0.83, the λmax worked out at 553 nm and the “T1/2 (fatigue life)” value came to 46 h. In series [6], the Fading speed was 26 s. Besides, in series [7] (impregnated from silicone oil), the Initial color density is 0.64 and the λmax was 562 nm. The T1/2 in series [7] (impregnated from silicone oil at 200° C. for 1 hour, xenon fadeometer) is 50 h. The T1/2 in series [2] amounted to 182 h.

On to `CC1=C2C(=O)N(CCCCC(=O)OCCc3cccc4ccccc34)C(=O)C2C2(c3sccc31)C1CC3CC(C1)CC2C3` (centres unmarked) [(6)], for which, in series [1], the Initial color density turned out to be 0.49, the λmax worked out at 538 nm and the “T1/2 (fatigue life)” value was 16 h. The Fading speed in series [6] worked out at 76 s. In addition, in series [2], the T1/2 worked out at 65 h.

Consider `CC1=C2C(=O)N(CCc3ccc4ccccc4c3)C(=O)C2C2(CC3CCC2C3)c2sc(Br)cc21` (centres unmarked) [(3)], for which, in series [1], the Initial color density was found to be 0.42, the λmax worked out at 535 nm and the “T1/2 (fatigue life)” value came to 13 h. The Fading speed in series [6] was found to be 71 s. Moreover, in series [2], the T1/2 amounted to 77 h.

With `CN1C(C)(C)CC(OC(=O)CCCCCCCCC(=O)OC2CC(C)(C)N(C)C(C)(C)C2)CC1(C)C` [Tinuvin 765], the T1/2 in series [3] turned out to be 159 h; in series [4] it was 191 h; in series [5] (setting [8]), 106 h; in series [5] (setting [9]), 152 h; in series [5] (setting [10]), 166 h; in series [5] (setting [11]), 182 h.
